Source: patent US10450585B2, “Delivery methods and compositions for nuclease-mediated genome engineering” (Sangamo Therapeutics, Inc., priority 2015, dated 2019)

Columns and labels:
[1] = system: human patient-derived primary hepatocytes; experiment: AAV2/6 ZFN transduction of primary hepatocytes with PDGFR inhibitor; % indels; format: cell-based; settings: 9 μM
Procedure: For human hepatocytes, 48-well cell culture dishes were purchased pre-coated with collagen (Life Technologies). Plates were incubated for 1 hour at 37° C. Thawing/plating media was prepared by combining 18 mL InVitroGRO CP medium (BioreclamationIVT) and 400 μL Torpedo antibiotic mix (Celsis In Vitro Technologies). Once the plates were prepared, the plate-able human hepatocytes (Lot# AKB), were transferred from the liquid nitrogen vapor phase directly into the 37° C. water bath and thawed under gently stirring. The cells were transferred directly into a 50 ml conical tube containing 5 mL of pre-warmed thawing/plating medium. To retrieve all the cells, the vial was washed with 1 mL of thawing/plating medium, which was added to the cells. Following resuspension of the cells, a small aliquot (20 μL) was removed to perform a cell count and to determine cell viability using trypan blue solution (1:5; Corning, Cat#25-900-C1). The cells were then centrifuged at 75×g for 5 minutes, the supernatant was removed and the cells were resuspended at 1e6 cells/mL. Cells were seeded at 3e5 cells/well in the coated 48-well plates. Cells were then incubated in a 37° C./5% CO2 incubator.
One day after the cells were plated, cells were switched to HCM maintenance medium (Lonza, HBM and HCM SingleQuots). […] Genomic DNA was extracted and analyzed by deep sequencing (MiSeq) at the albumin locus.

[2] = system: Hep3B (human hepatoma cell line) cells; experiment: AAV2/6 delivery of albumin ZFNs to Hep3B cells after growth factor receptor inhibitor pre-incubation; % indels by deep sequencing; format: cell-based; settings: serum-free pre-incubation, AAV2/6 albumin ZFNs MOI 3e4 vg/cell
Procedure: In order to test the relative contribution of co-receptors to AAV transduction, inhibitors against epidermal growth factor receptor (EGFR), hepatocyte growth factor receptor (HGFR), fibroblast growth factor receptor (FGFR) and platelet-derived growth factor receptor (PDGFR) were used prior to in vitro AAV2/6 transduction experiments in Hep3B (human hepatoma cell line) cells using zinc-finger nucleases (ZFNs) targeting the human albumin locus. Hep3B cells were plated at a density of 1×10^5 cells per well in a 48-well tissue culture plate in 300 μL complete growth media the day before transduction with AAV2/6. On the morning of transduction, the cells were washed three times with serum-free media and incubated in the serum-free media for three hours. Growth factor receptor inhibitors were added to the wells and incubated for one hour. AAV2/6 particles to deliver ZFNs targeted to the albumin locus were then added to the wells. After three hours, serum was added to the wells to a final concentration of 10%. The cells were harvested on day 4 post-transduction. Genomic DNA was extracted and analyzed by deep sequencing (MiSeq) at the albumin locus. The growth factor receptor inhibitors used are shown below in Table 1, and they were used in the experiment in the concentrations indicated in FIG. 3, where each inhibitor is labeled by its target.

Row | SMILES | indels detected as compared to no inhibitor [1] | AAV transduction compared to control (% indels) [2]
1 | CC1(COc2ccc3c(c2)ncn3-c2ccc3cccc(N4CCC(N)CC4)c3n2)COC1 [Crenolanib] | large increase | –
2 | COc1cc2ncnc(Nc3ccc(F)c(Cl)c3)c2cc1OCCCN1CCOCC1 [EGFRi, Gefitinib] | – | mild inhibition
3 | CCN1CCN(c2ccc(Nc3cc(N(C)C(=O)Nc4c(Cl)c(OC)cc(OC)c4Cl)ncn3)cc2)CC1 [FGFRi, BGJ398] | – | mild stimulation
4 | Cc1[nH]c(/C=C2\C(=O)Nc3ccc(S(=O)(=O)N(C)c4cccc(Cl)c4)cc32)c(C)c1C(=O)N1CCN(C)CC1 [HGFRi, SU11274] | – | mild stimulation
